Source: patent US12358932B2, “Chemical compounds” (BORAH, INC., priority 2019, dated 2025)

Biological target: T1, Recombinant human PDE4B (Homo sapiens, UniProt Q07343)
T1 construct: aa 305-end; GST (N); made in house; host or cells: Sf9 insect cells (baculovirus)
Assay: PDE4B Phosphodiesterase Assay
Format: biochemical
Set-up: key to Activity Note: PDE4: The (+) symbols identify a compound of the present disclosure with the noted target activity; +*: The (*) symbols indicate preferential activity, where the greater number identifies the most preferred compounds; +**: The (*) symbols indicate preferential activity, where the greater number identifies the most preferred compounds; +***: The (*) symbols indicate preferential activity, where the greater number identifies the most preferred compounds
Conditions: compound list; + = noted target activity
Procedure: The assay is based on the fluorescence polarization measuring AMP/GMP production as a result of the enzyme activity by displacement of Tracer binding to the AMP/GMP antibody. • Reaction Buffer: 10 mM Tris-HCl, pH 7.5, 5 mM MgCl2, 0.01% Brij 35, 1 mM DTT and 1% DMSO. • Enzyme: Recombinant human PDE4B (Gene Accession #NM_002600; aa 305-end) was expressed by baculovirus in Sf9 insect cells using an N-terminal GST tag. Mw=78 kDa. • Substrate: 1 μM cAMP • Detection: Transcreener® AMP2/GMP2 Antibody AMP2/GMP2 AlexaFluor 633 Tracer Reaction Procedure: • 1. Prepared indicated enzyme and substrate in freshly prepared Reaction Buffer • 2. Delivered enzyme solution into the reaction well • 3. Delivered compounds in 100% DMSO into the enzyme solution by Acoustic technology (Echo550; nanoliter range), incubated for 10 min at room temperature • 4. Delivered substrate solution into the reaction well to initiate the reaction • 5. Incubated for 1 h at room temperature • 6. Added detection mixture (Tracer and antibody in the stop buffer) to stop the reaction and incubated for 90 min with gentle mixing. The fluorescence polarization was measured at Ex/Em 620/688.
Data Analysis: The FP signals were converted into nM product based on an AMP/GMP standard curve and calculated % Enzyme activity relative to DMSO control by Excel. The curve fit was performed using GraphPad prism.

T1 sequence (Q07343 305-736 limits assumed): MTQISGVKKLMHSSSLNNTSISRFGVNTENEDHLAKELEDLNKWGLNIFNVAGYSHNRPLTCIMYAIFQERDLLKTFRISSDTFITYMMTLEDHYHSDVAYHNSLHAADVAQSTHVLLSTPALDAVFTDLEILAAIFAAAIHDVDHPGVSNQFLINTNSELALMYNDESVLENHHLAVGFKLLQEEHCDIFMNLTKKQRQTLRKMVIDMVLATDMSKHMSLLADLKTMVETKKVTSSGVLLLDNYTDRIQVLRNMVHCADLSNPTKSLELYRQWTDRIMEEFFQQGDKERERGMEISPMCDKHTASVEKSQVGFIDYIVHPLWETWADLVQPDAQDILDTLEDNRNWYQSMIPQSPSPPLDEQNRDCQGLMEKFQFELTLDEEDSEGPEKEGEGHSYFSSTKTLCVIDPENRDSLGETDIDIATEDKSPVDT

Activity Note: PDE4 | SMILES
+ | Cc1cnc(Nc2ccc3c(c2)COB3O)nc1NC1CCC1 [5-((4-(cyclobutylamino)-5-methylpyrimidin-2-yl)amino)benzo[c][1,2]oxaborol-1(3H)-ol]
+ | Cc1cnc(Nc2ccc3c(c2)COB3O)nc1NC1CCCCC1 [5-((4-(cyclohexylamino)-5-methylpyrimidin-2-yl)amino)benzo[c][1,2]oxaborol-1(3H)-ol]
+ | Cc1ccccc1Nc1nc(Nc2ccc3c(c2)COB3O)ncc1C [5-((5-methyl-4-(o-tolylamino)pyrimidin-2-yl)amino)benzo[c][1,2]oxaborol-1(3H)-ol]
+ | Cc1cnc(Nc2ccc3c(c2)COB3O)nc1OC1CCCC1 [5-((4-(cyclopentyloxy)-5-methylpyrimidin-2-yl)amino)benzo[c][1,2]oxaborol-1(3H)-ol]
+ | Cc1cnc(Nc2ccc3c(c2)COB3O)nc1Nc1ccccc1Cl [5-((4-((2-chlorophenyl)amino)-5-methylpyrimidin-2-yl)amino)benzo[c][1,2]oxaborol-1(3H)-ol]
+ | Cc1cnc(Nc2ccc3c(c2)COB3O)nc1NCc1cccc(F)c1 [5-((4-((3-fluorobenzyl)amino)-5-methylpyrimidin-2-yl)amino)benzo[c][1,2]oxaborol-1(3H)-ol]
+ | CCC(C)Nc1nc(Nc2ccc3c(c2)COB3O)ncc1C (stereo not drawn) [5-((4-(sec-butylamino)-5-methylpyrimidin-2-yl)amino)benzo[c][1,2]oxaborol-1(3H)-ol]
+ | Cc1cnc(Nc2ccc3c(c2)COB3O)nc1NCc1ccc(Cl)cc1 [5-((4-((4-chlorobenzyl)amino)-5-methylpyrimidin-2-yl)amino)benzo[c][1,2]oxaborol-1(3H)-ol]
+ | CCCNc1nc(Nc2ccc3c(c2)COB3O)ncc1C=O [2-((1-hydroxy-1,3-dihydrobenzo[c][1,2]oxaborol-5-yl)amino)-4-(propylamino)pyrimidine-5-carbaldehyde]
+ | CCC(CO)Nc1nc(Nc2ccc3c(c2)COB3O)ncc1C (stereo not drawn) [5-((4-((1-hydroxybutan-2-yl)amino)-5-methylpyrimidin-2-yl)amino)benzo[c][1,2]oxaborol-1(3H)-ol]
+ | CCCNc1nc(Nc2ccc3c(c2)COB3O)ncc1F [5-((5-fluoro-4-(propylamino)pyrimidin-2-yl)amino)benzo[c][1,2]oxaborol-1(3H)-ol]
+ | OB1OCc2cc(Nc3nccc(NC4CCCCC4)n3)ccc21 [5-((4-(cyclohexylamino)pyrimidin-2-yl)amino)benzo[c][1,2]oxaborol-1(3H)-ol]
+ | CCCC(CC)Nc1nc(Nc2ccc3c(c2)COB3O)ncc1Cl (stereo not drawn) [5-((5-chloro-4-(hexan-3-ylamino)pyrimidin-2-yl)amino)benzo[c][1,2]oxaborol-1(3H)-ol]
+ | OB1OCc2cc(Nc3ncc(C(F)(F)F)c(NC4CCCC4)n3)ccc21 [5-((4-(cyclopentylamino)-5-(trifluoromethyl)pyrimidin-2-yl)amino)benzo[c][1,2]oxaborol-1(3H)-ol]
+ | OB1OCc2cc(Nc3ncc(C(F)(F)F)c(NC4CCCCC4)n3)ccc21 [5-((4-(cyclohexylamino)-5-(trifluoromethyl)pyrimidin-2-yl)amino)benzo[c][1,2]oxaborol-1(3H)-ol]
+ | CCC(CC)Nc1nc(Nc2ccc3c(c2)COB3O)ncc1F [5-((5-fluoro-4-(pentan-3-ylamino)pyrimidin-2-yl)amino)benzo[c][1,2]oxaborol-1(3H)-ol]
+ | OB1OCc2cc(Nc3ncc(C(F)(F)F)c(NCCC4CC4)n3)ccc21 [5-((4-((2-cyclopropylethyl)amino)-5-(trifluoromethyl)pyrimidin-2-yl)amino)benzo[c][1,2]oxaborol-1(3H)-ol]
+ | Cc1cnc(Nc2ccc3c(c2)COB3O)nc1NC(C)c1ccccc1 (stereo not drawn) [5-((5-methyl-4-((1-phenylethyl)amino)pyrimidin-2-yl)amino)benzo[c][1,2]oxaborol-1(3H)-ol]
+ | Cc1cnc(Nc2ccc3c(c2)COB3O)nc1Nc1ccccc1 [5-((5-methyl-4-(phenylamino)pyrimidin-2-yl)amino)benzo[c][1,2]oxaborol-1(3H)-ol]
+ | CCC(CC)Nc1ccnc(Nc2ccc3c(c2)COB3O)n1 [5-((4-(pentan-3-ylamino)pyrimidin-2-yl)amino)benzo[c][1,2]oxaborol-1(3H)-ol]

Activity Note: PDE4 | SMILES
+ | CCc1ccccc1Nc1nc(Nc2ccc3c(c2)COB3O)ncc1C [5-((4-((2-ethylphenyl)amino)-5-methylpyrimidin-2-yl)amino)benzo[c][1,2]oxaborol-1(3H)-ol]
+ | OB1OCc2cc(Nc3ncc(Cl)c(NC4CCCCC4)n3)ccc21 [5-((5-chloro-4-(cyclohexylamino)pyrimidin-2-yl)amino)benzo[c][1,2]oxaborol-1(3H)-ol]
+ | CCC(CC)Nc1nc(Nc2cc(F)c3c(c2)COB3O)ncc1C [7-fluoro-5-((5-methyl-4-(pentan-3-ylamino)pyrimidin-2-yl)amino)benzo[c][1,2]oxaborol-1(3H)-ol]
+ | Cc1cnc(Nc2ccc3c(c2)COB3O)nc1NCc1ccccc1 [5-((4-(benzylamino)-5-methylpyrimidin-2-yl)amino)benzo[c][1,2]oxaborol-1(3H)-ol]
+ | Cc1cnc(N(C)c2ccc3c(c2)COB3O)nc1OC1CCCCC1 [drawing 151, 5-((4-(cyclohexyloxy)-5-methylpyrimidin-2-yl)(methyl)amino)benzo[c][1,2]oxaborol-1(3H)-ol]
+ | CCCNc1nc(Nc2ccc3c(c2)COB3O)ncc1C(F)(F)F [5-((4-(propylamino)-5-(trifluoromethyl)pyrimidin-2-yl)amino)benzo[c][1,2]oxaborol-1(3H)-ol]
+ | CCOC(=O)c1cccc(Nc2nc(Nc3ccc4c(c3)COB4O)ncc2C)c1 [ethyl 3-((2-((1-hydroxy-1,3-dihydrobenzo[c][1,2]oxaborol-5-yl)amino)-5-methylpyrimidin-4-yl)amino)benzoate]
+ | CCC(CCOC)Nc1nc(Nc2ccc3c(c2)COB3O)ncc1C(F)(F)F (stereo not drawn) [5-((4-((1-methoxypentan-3-yl)amino)-5-(trifluoromethyl)pyrimidin-2-yl)amino)benzo[c][1,2]oxaborol-1(3H)-ol]
+ | OB1OCc2cc(Nc3ncc(C(F)(F)F)c(NCc4ccccc4)n3)ccc21 [5-((4-(benzylamino)-5-(trifluoromethyl)pyrimidin-2-yl)amino)benzo[c][1,2]oxaborol-1(3H)-ol]
+ | Cc1cnc(Nc2ccc3c(c2)COB3O)nc1NCCC1CC1 [5-((4-((2-cyclopropylethyl)amino)-5-methylpyrimidin-2-yl)amino)benzo[c][1,2]oxaborol-1(3H)-ol]
+ | OB1OCc2cc(Nc3ncc(F)c(NCc4ccccc4)n3)ccc21 [5-((4-(benzylamino)-5-fluoropyrimidin-2-yl)amino)benzo[c][1,2]oxaborol-1(3H)-ol]
+ | Cc1cnc(Nc2ccc3c(c2)COB3O)nc1Nc1ccccc1C(F)(F)F [5-((5-methyl-4-((2-(trifluoromethyl)phenyl)amino)pyrimidin-2-yl)amino)benzo[c][1,2]oxaborol-1(3H)-ol]
+ | Cc1cnc(Nc2ccc3c(c2)COB3O)nc1Nc1cccc(CO)c1 [5-((4-((3-(hydroxymethyl)phenyl)amino)-5-methylpyrimidin-2-yl)amino)benzo[c][1,2]oxaborol-1(3H)-ol]
+ | CCC(C)Nc1nc(Nc2ccc3c(c2)COB3O)ncc1F (stereo not drawn) [5-((4-(sec-butylamino)-5-fluoropyrimidin-2-yl)amino)benzo[c][1,2]oxaborol-1(3H)-ol]
+ | Cc1cnc(Nc2ccc3c(c2)COB3O)nc1NC1CCCC1 [5-((4-(cyclopentylamino)-5-methylpyrimidin-2-yl)amino)benzo[c][1,2]oxaborol-1(3H)-ol]
+ | CCC(CO)Nc1nc(Nc2ccc3c(c2)COB3O)ncc1Cl (stereo not drawn) [5-((5-chloro-4-((1-hydroxybutan-2-yl)amino)pyrimidin-2-yl)amino)benzo[c][1,2]oxaborol-1(3H)-ol]
+ | Cc1cnc(Nc2ccc3c(c2)COB3O)nc1NC1CC1 [5-((4-(cyclopropylamino)-5-methylpyrimidin-2-yl)amino)benzo[c][1,2]oxaborol-1(3H)-ol]
+ | Cc1cnc(Nc2ccc3c(c2)COB3O)nc1NCc1cccc(Cl)c1 [5-((4-((3-chlorobenzyl)amino)-5-methylpyrimidin-2-yl)amino)benzo[c][1,2]oxaborol-1(3H)-ol]
+ | Cc1cnc(Nc2cc(F)c3c(c2)COB3O)nc1Nc1ccccc1 [7-fluoro-5-((5-methyl-4-(phenylamino)pyrimidin-2-yl)amino)benzo[c][1,2]oxaborol-1(3H)-ol]
